# In ChEMBL document CHEMBL3885861, “Open TG-GATES”:
# Species: Rattus norvegicus
# Assay: Open TG-GATES - Regimen: Daily Repeat
# Format: toxicity, organism-based, Sprague-Dawley
# Design: regimen Daily Repeat, gender Male, age 6 weeks
# Details: in vivo, po, 3 mg/kg, route gavage, dose level Low; for APTT / Bas / Eos / Fbg / Hb / Ht / Lym / MCH / MCHC / MCV / Mono / Neu / PT / Plat / RBC / Ret / WBC: tissue Blood; for KIDNEY_L / KIDNEY_R / KIDNEY_TOTAL: tissue Kidney; for LIVER: tissue Liver; for A/G / ALP / ALT / AST / BUN / CRE / Ca / Cl / DBIL / GLC / IP / K / LDH / Na / PL / RALB / TBIL / TC / TG / TP / gamma-GTP: tissue Plasma
smiles,measurement,setting,value
C=CCO [ALLYL ALCOHOL],TERMINAL_BW,"72 h, time 3 day",238.5 g
same,APTT,"72 h, time 3 day",20.1 s
same,Bas,"72 h, time 3 day",0%
same,Eos,"72 h, time 3 day",1.2%
same,Fbg,"72 h, time 3 day",228.4 mg/dL
same,Hb,"72 h, time 3 day",13.8 g/dL
same,Ht,"72 h, time 3 day",40%
same,Lym,"72 h, time 3 day",77.8%
same,MCH,"72 h, time 3 day",20.8 pg
same,MCHC,"72 h, time 3 day",34.5%
same,MCV,"72 h, time 3 day",60.4 fL
same,Mono,"72 h, time 3 day",2.8%
same,Neu,"72 h, time 3 day",17.8%
same,PT,"72 h, time 3 day",11.6 s
same,Plat,"72 h, time 3 day",135.9 x10_4/uL
same,RBC,"72 h, time 3 day",662 x10_4/ul
same,Ret,"72 h, time 3 day",5.2%
same,WBC,"72 h, time 3 day",117.9 x10_2/uL
same,KIDNEY_L,"72 h, time 3 day",1 g
same,KIDNEY_R,"72 h, time 3 day",1 g
same,KIDNEY_TOTAL,"72 h, time 3 day",2 g
same,LIVER,"72 h, time 3 day",11.5 g
same,A/G,"72 h, time 3 day",1.6
same,ALP,"72 h, time 3 day",1089.8 IU/L
same,ALT,"72 h, time 3 day",37.6 IU/L
same,AST,"72 h, time 3 day",63.8 IU/L
same,BUN,"72 h, time 3 day",16.2 mg/dL
same,CRE,"72 h, time 3 day",0.5 mg/dL
same,Ca,"72 h, time 3 day",10.8 mg/dL
same,Cl,"72 h, time 3 day",103.2 meq/L
same,DBIL,"72 h, time 3 day",0.076 mg/dL
same,GLC,"72 h, time 3 day",225.8 mg/dL
same,IP,"72 h, time 3 day",7.1 mg/dL
same,K,"72 h, time 3 day",4.3 meq/L
same,LDH,"72 h, time 3 day",204.6 IU/L
same,Na,"72 h, time 3 day",140.4 meq/L
same,PL,"72 h, time 3 day",153 mg/dL
same,RALB,"72 h, time 3 day",3.4 g/dL
same,TBIL,"72 h, time 3 day",0.1 mg/dL
same,TC,"72 h, time 3 day",79.2 mg/dL
same,TG,"72 h, time 3 day",91.6 mg/dL
same,TP,"72 h, time 3 day",5.6 g/dL
same,gamma-GTP,"72 h, time 3 day",0.6 IU/L
same,TERMINAL_BW,"[…], time 7 day",274.1 g
same,TERMINAL_BW,"[…], time 14 day",304.7 g
same,TERMINAL_BW,"[…], time 28 day",380.5 g
same,APTT,"[…], time 7 day",19.5 s
same,Bas,"[…], time 7 day",0%
same,Eos,"[…], time 7 day",1%
same,Fbg,"[…], time 7 day",220.8 mg/dL
same,Hb,"[…], time 7 day",13.7 g/dL
same,Ht,"[…], time 7 day",40.3%
same,Lym,"[…], time 7 day",80.6%
same,MCH,"[…], time 7 day",20.5 pg
same,MCHC,"[…], time 7 day",34%
same,MCV,"[…], time 7 day",60.4 fL
same,Mono,"[…], time 7 day",2.6%
same,Neu,"[…], time 7 day",15.8%
same,PT,"[…], time 7 day",11.9 s
same,Plat,"[…], time 7 day",135 x10_4/uL
same,RBC,"[…], time 7 day",667.2 x10_4/ul
same,Ret,"[…], time 7 day",5.1%
same,WBC,"[…], time 7 day",128.3 x10_2/uL
same,APTT,"[…], time 14 day",20.1 s
same,Bas,"[…], time 14 day",0%
same,Eos,"[…], time 14 day",1.4%
same,Fbg,"[…], time 14 day",225.8 mg/dL
same,Hb,"[…], time 14 day",14.5 g/dL
same,Ht,"[…], time 14 day",42%
same,Lym,"[…], time 14 day",85.4%
same,MCH,"[…], time 14 day",20.3 pg
same,MCHC,"[…], time 14 day",34.6%
same,MCV,"[…], time 14 day",58.7 fL
same,Mono,"[…], time 14 day",2.4%
same,Neu,"[…], time 14 day",10.6%
same,PT,"[…], time 14 day",12 s
same,Plat,"[…], time 14 day",113.9 x10_4/uL
same,RBC,"[…], time 14 day",715.2 x10_4/ul
same,Ret,"[…], time 14 day",3.5%
same,WBC,"[…], time 14 day",110.3 x10_2/uL
same,APTT,"[…], time 28 day",20.8 s
same,Bas,"[…], time 28 day",0%
same,Eos,"[…], time 28 day",1%
same,Fbg,"[…], time 28 day",216.8 mg/dL
same,Hb,"[…], time 28 day",15.2 g/dL
same,Ht,"[…], time 28 day",43.8%
same,Lym,"[…], time 28 day",80%
same,MCH,"[…], time 28 day",19.3 pg
same,MCHC,"[…], time 28 day",34.7%
same,MCV,"[…], time 28 day",55.5 fL
same,Mono,"[…], time 28 day",2.2%
same,Neu,"[…], time 28 day",16%
same,PT,"[…], time 28 day",12 s
same,Plat,"[…], time 28 day",106.9 x10_4/uL
same,RBC,"[…], time 28 day",787.6 x10_4/ul
same,Ret,"[…], time 28 day",2.7%
same,WBC,"[…], time 28 day",103.8 x10_2/uL
same,KIDNEY_L,"[…], time 7 day",1.1 g
same,KIDNEY_R,"[…], time 7 day",1.1 g
same,KIDNEY_TOTAL,"[…], time 7 day",2.2 g
same,KIDNEY_L,"[…], time 14 day",1.2 g
same,KIDNEY_R,"[…], time 14 day",1.1 g
same,KIDNEY_TOTAL,"[…], time 14 day",2.3 g
same,KIDNEY_L,"[…], time 28 day",1.3 g
same,KIDNEY_R,"[…], time 28 day",1.4 g
same,KIDNEY_TOTAL,"[…], time 28 day",2.7 g
same,LIVER,"[…], time 7 day",13 g
same,LIVER,"[…], time 14 day",13 g
same,LIVER,"[…], time 28 day",15.8 g
same,A/G,"[…], time 7 day",1.6
same,ALP,"[…], time 7 day",883.8 IU/L
same,ALT,"[…], time 7 day",31.2 IU/L
same,AST,"[…], time 7 day",61.4 IU/L
same,BUN,"[…], time 7 day",16.2 mg/dL
same,CRE,"[…], time 7 day",0.4 mg/dL
same,Ca,"[…], time 7 day",10.9 mg/dL
same,Cl,"[…], time 7 day",101.6 meq/L
same,DBIL,"[…], time 7 day",0.088 mg/dL
same,GLC,"[…], time 7 day",221.4 mg/dL
same,IP,"[…], time 7 day",6.9 mg/dL
same,K,"[…], time 7 day",4.1 meq/L
same,LDH,"[…], time 7 day",192 IU/L
same,Na,"[…], time 7 day",141 meq/L
same,PL,"[…], time 7 day",145.6 mg/dL
same,RALB,"[…], time 7 day",3.5 g/dL
same,TBIL,"[…], time 7 day",0.1 mg/dL
same,TC,"[…], time 7 day",70.4 mg/dL
same,TG,"[…], time 7 day",120.6 mg/dL
same,TP,"[…], time 7 day",5.8 g/dL
same,gamma-GTP,"[…], time 7 day",0.8 IU/L
same,A/G,"[…], time 14 day",1.5
same,ALP,"[…], time 14 day",736.6 IU/L
same,ALT,"[…], time 14 day",39 IU/L
same,AST,"[…], time 14 day",60.2 IU/L
same,BUN,"[…], time 14 day",16.2 mg/dL
same,CRE,"[…], time 14 day",0.4 mg/dL
same,Ca,"[…], time 14 day",10.6 mg/dL
same,Cl,"[…], time 14 day",102.6 meq/L
same,DBIL,"[…], time 14 day",0.07 mg/dL
same,GLC,"[…], time 14 day",222.2 mg/dL
same,IP,"[…], time 14 day",6.3 mg/dL
same,K,"[…], time 14 day",3.6 meq/L
same,LDH,"[…], time 14 day",214.8 IU/L
same,Na,"[…], time 14 day",141.2 meq/L
same,PL,"[…], time 14 day",143 mg/dL
same,RALB,"[…], time 14 day",3.5 g/dL
same,TBIL,"[…], time 14 day",0.1 mg/dL
same,TC,"[…], time 14 day",74.8 mg/dL
same,TG,"[…], time 14 day",86.6 mg/dL
same,TP,"[…], time 14 day",5.9 g/dL
same,gamma-GTP,"[…], time 14 day",1.2 IU/L
same,A/G,"[…], time 28 day",1.2
same,ALP,"[…], time 28 day",620 IU/L
same,ALT,"[…], time 28 day",35.8 IU/L
same,AST,"[…], time 28 day",57.8 IU/L
same,BUN,"[…], time 28 day",15.2 mg/dL
same,CRE,"[…], time 28 day",0.5 mg/dL
same,Ca,"[…], time 28 day",10.4 mg/dL
same,Cl,"[…], time 28 day",102.8 meq/L
same,DBIL,"[…], time 28 day",0.076 mg/dL
same,GLC,"[…], time 28 day",218.2 mg/dL
same,IP,"[…], time 28 day",5.8 mg/dL
same,K,"[…], time 28 day",3.7 meq/L
same,LDH,"[…], time 28 day",210.8 IU/L
same,Na,"[…], time 28 day",139.8 meq/L
same,PL,"[…], time 28 day",138.6 mg/dL
same,RALB,"[…], time 28 day",3.4 g/dL
same,TBIL,"[…], time 28 day",0.1 mg/dL
same,TC,"[…], time 28 day",65.8 mg/dL
same,TG,"[…], time 28 day",114.4 mg/dL
same,TP,"[…], time 28 day",6.2 g/dL
same,gamma-GTP,"[…], time 28 day",0.6 IU/L
